Experimental data as given in ChEMBL document CHEMBL4118082 (Eur J Med Chem, 2017).
Values after ≈ are worked out from the molar mass of the structure shown.

Experiments:
Type in all cases: functional
[1] = test system: Mycobacterium tuberculosis; assay: Growth inhibition of Mycobacterium tuberculosis H37Ra Lehmann and Neumann ATCC 25177 harboring pSMT1 luciferase reporter at 10 uM after 6 days by luminescence based serial dilution method relative to control; details: H37Ra Lehmann and Neumann ATCC 25177, 144 h, read-out: GI
[2] = test system: Mycobacterium tuberculosis; assay: Growth inhibition of Mycobacterium tuberculosis H37Ra Lehmann and Neumann ATCC 25177 harboring pSMT1 luciferase reporter at 0.1 uM after 6 days by luminescence based serial dilution method relative to control; details: H37Ra Lehmann and Neumann ATCC 25177, 144 h, read-out: GI
[3] = test system: Mycobacterium tuberculosis; assay: Growth inhibition of Mycobacterium tuberculosis H37Ra Lehmann and Neumann ATCC 25177 harboring pSMT1 luciferase reporter at 1 uM after 6 days by luminescence based serial dilution method relative to control; details: H37Ra Lehmann and Neumann ATCC 25177, 144 h, read-out: GI
[4] = test system: Mycobacterium tuberculosis; assay: Antimycobacterial activity against Mycobacterium tuberculosis H37Ra Lehmann and Neumann ATCC 25177 harboring pSMT1 luciferase reporter after 6 days by luminescence based serial dilution method; details: H37Ra Lehmann and Neumann ATCC 25177, 144 h

Structure (SMILES) | inhibition of growth at 10 µM [1] | inhibition of growth at 0.1 µM [2] | inhibition of growth at 1 µM [3] | MIC90 [4]
CC(=O)Oc1cc(=O)[nH]c2ccccc12 | 35.4% | 14.5% | 21.1% | 
O=c1c(-c2ccccc2)c(O)c2ccccc2n1-c1ccccc1 | 98.3% | 30.1% | 53.7% | 6.4 µM (≈ 2.01 µg/mL)
Cn1c(=O)c(-c2ccccc2)c(O)c2ccccc21 | 87.2% | 29.8% | 49.5% | 
Oc1nc2ccccc2c(O)c1Cc1ccccc1 | 53.5% | 7.5% | 40.2% | 
CCCc1c(O)c2ccccc2n(-c2ccccc2)c1=O | 56.6% | 10.4% | 46.3% | 
CCn1c(=O)c(-c2ccccc2)c(O)c2ccccc21 | 8.2% | 0% | 0% | 
COc1cccc2c(O)c(-c3ccccc3)c(O)nc12 | 95% | 42.5% | 47.5% | 7.9 µM (≈ 2.11 µg/mL)
Cc1c(O)c2ccccc2n(-c2ccccc2)c1=O | 74.5% | 36% | 48.5% | 
Oc1nc2ccccc2c(O)c1-c1ccccc1 | 92.4% | 56% | 59.2% | 8.5 µM (≈ 2.02 µg/mL)
CC(=O)Oc1c(-c2ccccc2)c(=O)[nH]c2ccc(F)cc12 | 99.2% | 31% | 38% | 3.8 µM (≈ 1.13 µg/mL)
CCc1c(O)c2cc(OC)ccc2[nH]c1=O | 68.2% | 0% | 56.3% | 
Cc1cc2[nH]c(=O)c(-c3ccccc3)c(O)c2cc1C | 90.7% | 32.5% | 48.3% | 9.2 µM (≈ 2.44 µg/mL)
CCc1c(OC(C)=O)c2ccc(OC)cc2[nH]c1=O | 28.6% | 0% | 15.3% | 
CCc1c(O)c2ccccc2n(-c2ccccc2)c1=O | 25.6% | 22.5% | 34.8% | 
CCc1c(O)c2ccc(O)cc2[nH]c1=O | 49.4% | 25.6% | 34.3% | 
CCc1c(OC(C)=O)c2cccc(OC)c2[nH]c1=O | 31.2% | 0% | 13.3% | 
O=c1c(Cc2ccccc2)c(O)c2ccccc2n1Cc1ccccc1 | 49.5% | 24.8% | 38.8% | 
COc1ccc2[nH]c(=O)c(-c3ccccc3)c(OC(C)=O)c2c1 | 79.6% | 22.5% | 43.2% | 
CCc1c(OC(C)=O)c2ccccc2[nH]c1=O | 29.4% | 3.5% | 9.4% | 
COc1cccc2c(OC(C)=O)c(-c3ccccc3)c(=O)[nH]c12 | 76.3% | 8.9% | 32.5% | 
O=c1[nH]c2c(O)cccc2c(O)c1-c1ccccc1 | 95.3% | 60% | 67.1% | 8.3 µM (≈ 2.1 µg/mL)
CCc1c(O)c2ccc(OC)cc2[nH]c1=O | 60.8% | 23.7% | 36% | 
O=c1[nH]c2ccc(F)cc2c(O)c1-c1ccccc1 | 99.5% | 35.1% | 42.6% | 3.2 µM (≈ 0.817 µg/mL)
CCCCc1c(O)c2ccccc2n(-c2ccccc2)c1=O | 47.3% | 34.4% | 46.3% | 
CCc1c(O)c2cc(F)ccc2[nH]c1=O | 57.3% | 40% | 51.3% | 
CCc1c(O)c2c(C)ccc(C)c2[nH]c1=O | 86.2% | 16.9% | 46.4% | 
CCc1c(O)c2ccccc2[nH]c1=O | 98.6% | 59.2% | 78.2% | 

Structure (SMILES) | inhibition of growth at 10 µM [1] | inhibition of growth at 0.1 µM [2] | inhibition of growth at 1 µM [3] | MIC90 [4]
COc1ccc2[nH]c(=O)c(-c3ccccc3)c(O)c2c1 | 90.8% | 9.4% | 24.5% | 8.7 µM (≈ 2.33 µg/mL)
CCCCc1c(O)c2ccccc2n(C)c1=O | 23.9% | 0% | 10.5% | 
CCCCc1c(O)c2cc(OC)cc(OC)c2[nH]c1=O | 62.6% | 0% | 10.7% | 
O=c1[nH]c2ccc(O)cc2c(O)c1-c1ccccc1 | 95.1% | 32.3% | 52.1% | 8.3 µM (≈ 2.1 µg/mL)
CCCCc1c(O)c2c(Cl)ccc(C)c2[nH]c1=O | 59.1% | 30% | 38.7% | 
Cc1ccc2[nH]c(=O)c(-c3ccccc3)c(O)c2c1 | 92.3% | 36.2% | 51.2% | 8 µM (≈ 2.01 µg/mL)
O=c1c(Cc2ccccc2)c(O)c2ccccc2n1-c1ccccc1 | 56.3% | 20.3% | 54.7% | 
CCc1c(OC(C)=O)c2cc(F)ccc2[nH]c1=O | 44.5% | 0% | 14% | 
CCc1c(O)c2cccc(OC)c2[nH]c1=O | 71% | 65.8% | 66.4% | 
Cc1c(O)c2ccccc2[nH]c1=O | 55.5% | 43.6% | 46.6% | 6.8 µM (≈ 1.19 µg/mL)
COc1ccc2c(OC(C)=O)c(-c3ccccc3)c(=O)[nH]c2c1 | 81.2% | 20.9% | 39.7% | 
CCc1c(O)c2c(Cl)ccc(C)c2[nH]c1=O | 55.1% | 33.3% | 48.8% | 
O=c1[nH]c2cc(O)ccc2c(O)c1-c1ccccc1 | 96.3% | 53.7% | 61.7% | 8.2 µM (≈ 2.08 µg/mL)
CCCc1c(O)c2cc(F)ccc2[nH]c1=O | 78.2% | 13.2% | 38.5% | 
COc1ccc2c(O)c(-c3ccccc3)c(=O)[nH]c2c1 | 98.2% | 56.5% | 74.4% | 9.1 µM (≈ 2.43 µg/mL)
CCCCc1c(O)c2cc(Cl)ccc2[nH]c1=O | 64.8% | 21.6% | 35.4% | 
Cc1c(O)c2ccccc2n(C)c1=O | 83.8% | 4% | 32.9% | 
O=c1c(-c2ccccc2)c(O)c2ccccc2n1Cc1ccccc1 | 71.5% | 31.2% | 42.4% | 
CCc1c(OC(C)=O)c2cc(OC)ccc2[nH]c1=O | 27.8% | 0% | 10.1% | 
CCCCc1c(O)c2ccccc2n(Cc2ccccc2)c1=O | 33.2% | 20.9% | 25.3% | 
CC(=O)Oc1c(-c2ccccc2)c(=O)[nH]c2ccccc12 | 72.3% | 10.9% | 35.4% | 
CC(=O)Oc1c(C)c(=O)[nH]c2ccccc12 | 45.2% | 19.2% | 31.8% | 
CC(C)c1c(O)c2ccccc2[nH]c1=O | 69.3% | 42.5% | 47.4% | 
CC12CCC(c3c(O)c(-c4ccccc4)c(=O)n(-c4ccccc4)c31)C2(C)C (racemic) | 12.5% | 0% | 8.1% | 
CCCCc1c(O)c2c(n(-c3ccccc3)c1=O)C1(C)CCC2C1(C)C (racemic) | 7.5% | 0% | 1.2% | 
NNC(=O)c1ccncc1 [ISONIAZID] |  |  |  | 0.3 µM (≈ 0.0411 µg/mL)
CO[C@H]1/C=C/O[C@@]2(C)Oc3c(C)c(O)c4c(O)c(c(/C=N/N5CCN(C)CC5)c(O)c4c3C2=O)NC(=O)/C(C)=C\C=C\[C@H](C)[C@H](O)[C@@H](C)[C@@H](O)[C@@H](C)[C@H](OC(C)=O)[C@@H]1C [RIFAMPIN] |  |  |  | 0.1 µM (≈ 0.0823 µg/mL)
